# Assays:
# Type in all cases: cell-based, human
# [1] = tested on: BJ-TERT/LT/ST/RAS^V12 cells; experiment: Calcein AM viability assay, dilution series, BJ-TERT/LT/ST/RAS^V12 tumorigenic cells
# Description: Described here is work carried out to identify compounds with increased potency or activity in the presence of hTERT, LT, ST, E6, E7 or RAS^V12. […] The primary screen tested (in quadruplicate) the effect of treating tumorigenic […], corresponding to 10 μM for a compound with a molecular weight of 400, which is the approximate median molecular weight of the libraries. […] In live cells, calcein AM is cleaved by intracellular esterases, forming the anionic fluorescent derivative calcein, which cannot diffuse out of live cells. […] The IC50 value (concentration required to inhibit 50% of the calcein AM signal) was calculated for each compound in each cell line (Table 1).
# Calcein acetoxylmethyl ester (AM) is a cell membrane-permeable, non-fluorescent compound that is cleaved by intracellular esterases to form the anionic, cell-impermeable, fluorescent compound calcein. Viable cells are stained by calcein because of the presence of intracellular esterases and because the intact plasma membrane prevents fluorescent calcein from leaking out of cells (Wang et al., 1993, supra). Cells were seeded in 384-well plates using a Zymark Sciclone ALH, treated with each […], washed with phosphate-buffered saline on a Packard Minitrak with a 384-well washer and incubated for four hours with 0.7 μg/mL calcein (Molecular Probes). Total fluorescence intensity in each well was recorded on a Packard Fusion platereader, and converted to a percent inhibition of signal by subtracting the instrument background and dividing by the average signal obtained when cells were not treated with any compound.
# Compounds to be retested were purchased from manufacturers. Stocks were prepared in DMSO at a concentration of 1 mg/ml in 384-well polypropylene plates with a 16-point, two-fold dilution dose curve of each compound in a column, in duplicates. Column 1-2 and 23-24 were left empty for controls. Daughter retest plates were prepared from stock retest plate by diluting 66.6 fold in DMEM in 384-well deep-deep well plates (4.5 μl transfer into 300 μl). Cells were seeded at a density of 6000 per well in 40 μl, and 20 μl was added from a daughter retest plate. […]
# The IC50 in primary BJ cells was divided by the IC50 in BJ-TERT/LT/ST/RAS^V12 tumorigenic cells to obtain a tumor selectivity ratio for each compound. The compound selectivity for each genetic element was determined by calculating the selectivity ratio for each subsequent pair of cell lines in a series.
# [2] = tested on: BJ-TERT/LT/ST/RAS^V12 cells; experiment: DNA fragmentation (DNA ladder formation)
# caspase 3 = experiment: Western blot for active, cleaved caspase 3; conditions: lysates of treated BJ-TERT/LT/ST/RAS^V12 cells
# Description: BJ-TERT/LT/ST/RAS^V12 cells were seeded prior to the experiment at 5×10^5 cells in 60 mm dishes. The cells were treated with 5 μg/ml erastin (9 μM) for 2, 4, 6, 8 or 10 hours. One dish was maintained for camptothecin treatment (0.4 μg/ml for 24 h) as a positive control. Cells were lysed after each time point in lysis buffer (50 mM HEPES KOH pH 7.4, […], 2 mM EDTA, 0.5% Triton X-100, 1.5 mM Na3VO4, 50 mM NaF, 10 mM sodium pyrophosphate, 10 mM sodium beta-glycerophosphate and protease inhibitor tablet (Roche)). Protein content was quantified using a Biorad protein assay reagent. Equal amounts of protein were resolved on 16% SDS-polyacrylamide gel. The electrophoresed proteins were transblotted onto a PVDF membrane, blocked with 5% milk and incubated with anti-active caspase-3 polyclonal antibody (BD Pharmingen) at 1:1500 dilution overnight at 4° C. The membrane was then incubated in anti-rabbit-HRP (Santa Cruz Biotechnology) at 1:3000 dilution for 1 hour and developed with an enhanced chemiluminescence mixture (NEN life science, Renaissance). To test for equivalent loading in each lane, blots were stripped, blocked, and probed with an anti-eIF-4E antibody (BD Transduction laboratories) at 1:1000 dilution.
# [3] = tested on: BJ-TERT/LT/ST/RAS^V12 cells; experiment: Nuclear morphology assay; conditions: fluorescence microscopy, 9 μM erastin or 1.1 μM camptothecin, 18 hours
# Description: 200,000 tumorigenic BJ-TERT/LT/ST/RAS^V12 cells were seeded in 2 mL on glass coverslips in each well of a six-well dish, treated with nothing (NT), 9 μM erastin or 1.1 μM camptothecin (CPT) in growth medium for 18 hours while incubating at 37° C. with 5% CO2. Nuclei were stained with 25 μg/mL Hoechst 33342 (Molecular Probes) and viewed using an oil immersion 100× objective on a fluorescence microscope.
# BJ cells = experiment: Calcein AM viability assay, dilution series, BJ primary cells; conditions: two days
# Text: Described here is work carried out to identify compounds with increased potency or activity in the presence of hTERT, LT, ST, E6, E7 or RAS^V12. Engineered cell lines with these genetic elements were used to screen 23,550 compounds, including 20,000 compounds from a combinatorial library, 1,990 compounds from the National Cancer Institute diversity collection, and 1,540 biologically active known compounds that were selected and purchased by Applicant and formatted into a screenable collection. […] Cell viability was measured using the dye calcein acetoxymethyl ester (calcein AM) (Wang et al., 1993, Hum. Immunol. 37, 264-270), which is a non-fluorescent compound that freely diffuses into cells. […]
# Calcein acetoxylmethyl ester (AM) is a cell membrane-permeable, non-fluorescent compound that is cleaved by intracellular esterases to form the anionic, cell-impermeable, fluorescent compound calcein. […] Total fluorescence intensity in each well was recorded on a Packard Fusion platereader, and converted to a percent inhibition of signal by subtracting the instrument background and dividing by the average signal obtained when cells were not treated with any compound. […]
# Mean RFU (relative fluorescence units) for untreated cells was calculated by averaging columns 1, 2, and 23 (wells with cells but lacking compounds). […]
Structure (SMILES),time required to cause death ([1]; BJ-TERT/LT/ST/RAS^V12 cells),DNA fragmentation (formation of a DNA ladder) [2],activated (cleaved) caspase 3 (caspase 3),"nuclear morphology (karyorhexis, margination of chromatin) [3]","IC50, concentration required to achieve 50% inhibition of calcein AM staining, BJ (BJ cells) [µg/mL]","IC50, 50% inhibition of calcein AM staining, BJ-TERT/LT/ST/Ras^v12 ([1]; BJ-TERT/LT/ST/Ras^v12 cells, two days) [µg/mL]",Tumor Selectivity ([1]; IC50 in primary BJ cells divided by IC50 in BJ-TERT/LT/ST/RAS^V12 tumorigenic cells)
"CC[C@@]1(O)C(=O)OCc2c1cc1n(c2=O)Cc2cc3ccccc3nc2-1 [Camptothecin, camptothecin]",two days,induces DNA fragmentation,harbor activated caspase 3,karyorhexis and margination of chromatin were clearly visible,–,–,–
Cc1c2ccccc2c(CSC(=N)N)c2ccccc12.Cl [NSC146109],–,–,–,–,>5,2.5,>4
